Where two headings read alike, the source gives them in different places.
Tests used:
BChE = target: T1, BChE (Equus caballus, UniProt P81908); assay: biochemical; settings: for inhibition at 200 µM: read-out: Inhibition Activity 200 µM BChE
T1 construct: purchased Sigma-Aldrich, Hamburg, Germany; host or cells: equine serum
Procedure: AChE and BChE inhibitory activity of the newly synthesized pyrrole-based compounds was measured using the microplate assay described by Ellman et al. with the modifications added by López et al.. The compounds were tested at concentrations between 0.01 and 200 μM. First, they were dissolved in phosphate buffer (PBS) (8 mM K2HPO4, 2.3 mM NaH2PO4, 0.15 M NaCl, pH 7.5), assisted by the addition of no more than 5% MeOH. Then, they were serially diluted with PBS to provide the concentration range needed. Acetylcholinesterase from Electrophorus electricus and butyrylcholinesterase from equine serum (Sigma-Aldrich, Hamburg, Germany) were used with a substrate solution of 5,5′-dithiobis(2-nitrobenzoic acid) (DTNB) with acetylthiocholine iodide (ATCI) or butyrylthiocholine iodide (BTCI), respectively (0.04 M Na2HPO4, 0.2 mM DTNB, 0.24 mM ATCI or BTCI, pH 7.5). A total of 50 μL of AChE or BChE (0.25 U/mL, in PBS) and 50 μL of the tested compound solution were added to the wells. Incubation of the plates was performed at room temperature for 30 min. Then, 100 μL of substrate solution was added to start the enzymatic reaction. […] Enzyme activity was calculated as an inhibition percentage compared to an assay including buffer instead of an inhibitor.

[1] = target: T2, recombinant human MAO-B (hMAOB) (Homo sapiens, UniProt P27338); assay: biochemical; type: biochemical; settings: 1 µM compound
T2 sequence (P27338 1-520): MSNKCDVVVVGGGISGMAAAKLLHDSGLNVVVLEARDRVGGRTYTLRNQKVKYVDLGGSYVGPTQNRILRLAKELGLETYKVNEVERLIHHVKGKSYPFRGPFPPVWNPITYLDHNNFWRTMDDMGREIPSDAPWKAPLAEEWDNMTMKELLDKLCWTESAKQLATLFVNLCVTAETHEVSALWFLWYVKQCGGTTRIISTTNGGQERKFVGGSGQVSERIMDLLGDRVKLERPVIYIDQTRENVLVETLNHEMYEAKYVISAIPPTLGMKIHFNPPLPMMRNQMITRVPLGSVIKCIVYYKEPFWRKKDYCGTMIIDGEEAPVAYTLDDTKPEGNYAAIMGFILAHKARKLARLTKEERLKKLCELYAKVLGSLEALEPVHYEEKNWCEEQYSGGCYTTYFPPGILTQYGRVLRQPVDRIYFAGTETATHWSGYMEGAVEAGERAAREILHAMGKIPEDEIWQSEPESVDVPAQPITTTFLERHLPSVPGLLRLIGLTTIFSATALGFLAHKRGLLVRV
Procedure: Monoamine oxidase (MAO) activity for both recombinant human MAO-A (hMAOA) and MAO-B (hMAOB) was assessed using a fluorometric assay based on the Amplex® UltraRed reagent. This method, originally reported by Bautista-Aguilera et al. and later adapted with minor changes by Kasabova-Angelova et al., detects hydrogen peroxide or peroxidase activity present in enzymes or biological samples. In this assay, Amplex® Red reacts in a 1:1 molar ratio with hydrogen peroxide in the presence of peroxidase, producing the red-fluorescent compound resorufin. Due to resorufin’s strong extinction coefficient (58,000 ± 5000 cm^−1·M^−1), measurements could be accurately taken using either fluorometric or spectrophotometric methods. […] The control conditions included the use of purified hMAOA or hMAOB in reaction buffer, enzyme solutions with hydrogen peroxide, and buffer alone. All the test compounds were initially prepared at a 1 µM final concentration. These compounds were combined with either hMAOA or hMAOB and loaded into a 96-well plate (with eight replicates per test compound), followed by incubation for 30 min at 37 °C in the dark. Subsequently, a 50 µL detection mix was added to each well. This mix contained Amplex® Red, horseradish peroxidase (HRP), and tyramine substrate, all prepared in a reaction buffer. As this enzymatic reaction proceeded continuously, the fluorescence signal was recorded every 30 min (at 0, 30, 60, 90, 120, and 150 min) to track enzymatic kinetics.

[2] = system: isolated rat brain synaptosomes; assay: Neurotoxicity of compounds alone on isolated rat brain synaptosomes (MTT viability, GSH); type: cell-based; settings: compound alone, 100 μM, vs non-treated synaptosomes
Procedure: (§1) Two types of buffers were used for the isolation of the rat brain synaptosomes and mitochondria. Buffer A was 5 mM HEPES and 0.32 M Sucrose; Buffer B was 290 mM NaCl, 0.95 mM MgCl2 × 2H2O, 10 mM KCl, 2.4 mM CaCl2 × 2H2O, 2.1 mM NaH2PO4, 44 mM HEPES, 13 mM D-Glucose. For the gradient centrifugation, Percoll reagent was used. A stock solution of 90% Percoll was used to prepare 16%, 10% and 7.5% solutions. All the solutions were used as described below. Immediately after harvesting, synaptosomes, microsomes, and mitochondria were incubated with the exam compounds for 1 h. For assessing the possible neurotoxicity of the most MAOB active compounds, the sub-cellular fractions were incubated with 100 µM of them, and for evaluating their possible neuroprotective and antioxidant activities in different models of neurotoxicity, the sub-cellular fractions were incubated with 50µM of them. The protein measurement of all the sub-cellular fractions was made by the method of Lowry et al., 1951 [57].
(§2) The synaptosomes were prepared from rat brains by multiple sub-cellular fractionation using a Percoll gradient.
(§3) After the incubation, the synaptosomes were centrifuged three times at 15,000× g for 1 min. MTT-test was performed to determine synaptosomal vitality by the method described by Mungarro-Menchaca et al..
(§4) The level of GSH was determined by measuring the non-protein SH-groups after precipitation of the proteins with trichloroacetic acid (TCA). The presence of thiols in the supernatant was determined using Elmman’s reagent. The resulting yellow color was measured spectrophotometrically (λ = 412 nm).

[3] = system: isolated rat brain synaptosomes; assay: 6-OHDA-induced neurotoxicity in isolated rat brain synaptosomes; type: cell-based; settings: compound 50 µM with 6-OHDA 150 μM
Procedure: as §1, §2
This in vitro model resembles the neurodegenerative processes occurring in PD. Dopamine metabolism and oxidation led to the formation of reactive oxygen species (ROS) and reactive quinones. These processes were catalyzed by the MAOB enzyme. They induced dopamine neurotoxicity and neurodegeneration. The synaptosomes were incubated with 150 μM 6-OHDA for 1 h.
as §3, §4

[4] = system: isolated rat brain mitochondria; assay: Toxicity of compounds alone on isolated rat brain mitochondria (MDA, GSH); type: cell-based; settings: compound alone, 100 μM, vs non-treated mitochondria
Procedure: as §1
The mitochondria were prepared by multiple differential fractionation using a Percoll gradient.
After incubation of the mitochondria, 0.3 mL 0.2% TBA and 0.25 mL sulfuric acid (0.05 M) were added to stop the reaction. The tubes were maintained at 100 °C for 30 min. In the next stage, centrifugation of the tubes was carried out at 3500× g for 10 min. Assessment of the total quantity of MDA formed in each sample was measured in the supernatant at 532 nm.
After incubation of mitochondria, 0.04% DTNB was mixed with the mitochondrial suspensions in 0.1 M phosphate buffer (pH 7.4). The absorbance of the yellow product was measured at 412 nm.

T1 sequence (P81908 whole entry): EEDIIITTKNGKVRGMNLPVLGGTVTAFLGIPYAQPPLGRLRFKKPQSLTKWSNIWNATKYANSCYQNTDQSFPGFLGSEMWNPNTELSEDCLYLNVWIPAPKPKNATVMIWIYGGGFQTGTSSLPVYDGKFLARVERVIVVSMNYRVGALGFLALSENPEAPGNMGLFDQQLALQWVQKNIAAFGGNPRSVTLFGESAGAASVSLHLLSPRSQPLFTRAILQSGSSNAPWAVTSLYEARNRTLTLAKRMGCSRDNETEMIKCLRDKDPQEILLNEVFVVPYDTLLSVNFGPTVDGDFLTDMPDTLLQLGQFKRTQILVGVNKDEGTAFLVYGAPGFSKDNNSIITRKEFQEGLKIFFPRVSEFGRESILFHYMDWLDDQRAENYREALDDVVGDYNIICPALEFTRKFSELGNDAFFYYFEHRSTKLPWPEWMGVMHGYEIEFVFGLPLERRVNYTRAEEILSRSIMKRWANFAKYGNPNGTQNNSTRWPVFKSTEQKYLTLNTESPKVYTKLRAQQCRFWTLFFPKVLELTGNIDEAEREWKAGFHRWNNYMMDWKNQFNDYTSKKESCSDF

Structure (SMILES) | IC50 (BChE; BChE IC50, means ± SD of three experiments) [µM] | inhibition at 200 µM (BChE) [%] | inhibition at 1 µM [1] [%] | decrease of GSH level compared to the control [2] [%] | decrease of synaptosomal viability compared to the control [2] [%] | preservation of GSH level compared to toxic 6-OHDA [3] [%] | decrease of GSH level compared to the control [4] [%] | increase of MDA production compared to the control [4] [%] | IC50 (BChE; means ± SD of three experiments, read-out: BChE IC50) [µM]
Cc1ccc(C)n1C(Cc1cnc[nH]1)C(=O)O (stereo not shown) [EM-DC-19, 2-(2,5-dimethyl-1H-pyrrol-1-yl)-3-(2H-imidazol-4-yl)propanoic acid] | > 200 | 18.03 ± 0.17 | 50 ± 7.1 | 30 | 25 | 20 | 25 | 50 | –
Cc1ccc(C)n1-c1ccc(CC(=O)O)cc1 [EM-DC-27, [4-(2,5-dimethyl-1H-pyrrol-1-yl)phenyl]acetic acid] | – | 0 | 50 ± 7.1 | 30 | 25 | 20 | 25 | 70 | > 200

Source: article PMC12655551, “Design, Synthesis, and Evaluation of Pyrrole-Based Selective MAO-B Inhibitors with Additional AChE Inhibitory and Neuroprotective Properties Identified via Virtual Screening” (Pharmaceuticals, 2025)
